Active and inactive are the calls of the source.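 Rule for the calls: active = compounds lowering heat-shock reporter fluorescence with mean IC50 at or below 15 µM, flagged as SKN-1 screen artifacts; inactive = the rest.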
What follows are compounds tested on C. elegans VP596 hsp-16.2 GFP/RFP after heat shock (assay: inhibitors of heat-induced hsp-16.2 GFP signal – whole organism, C. elegans VP596, GFP/RFP ratio, round 2, counter-screen for SKN-1 inhibitor project, SAR follow-up (AID 652273)).

SMILES	IC50
C=CCNCc1cc(Cl)c(OCc2ccc(Cl)cc2)c(OCC)c1	> 64 µM (inactive)
CCOc1cc(CN(C)C2CCCC2)cc(Cl)c1OCc1ccc(Cl)cc1	> 64 µM (inactive)
Cc1cc(CNC2CCCC2)cc(C)c1OCc1ccc(Cl)cc1	> 64 µM (inactive)
COc1cc(CNC2CCCC2)cc(F)c1OCc1ccc(Cl)cc1	> 64 µM (inactive)
CCOc1cc(CN2CCN(C)CC2)cc(Cl)c1OCc1ccc(F)cc1	> 64 µM (inactive)
CCOc1cc(CN2CCCC2)cc(Cl)c1OCc1ccc(F)cc1	> 64 µM (inactive)
CCCNCc1cc(Cl)c(OCc2ccc(Cl)cc2)c(OCC)c1	> 64 µM (inactive)
CCOc1cc(CN2CCCCC2)cc(Cl)c1OCc1ccc(Cl)cc1	> 64 µM (inactive)
CCOc1cc(CN2CCN(C)CC2)cc(Cl)c1OCc1ccc(Cl)cc1	> 64 µM (inactive)
COc1cc(CNC2CCCC2)cc(Br)c1OCc1ccc(Cl)cc1	> 64 µM (inactive)
CCOc1cc(CNC)cc(Cl)c1OCc1ccc(Cl)cc1	> 64 µM (inactive)
CCOc1cc(CNC2CCCC2)cc(Cl)c1OCc1ccc(C#N)cc1	> 64 µM (inactive)
CCOc1cc(CNCC2CC2)cc(Cl)c1OCc1ccc(Cl)cc1	> 64 µM (inactive)
CCOc1cc(CNC2CCCC2)cc(Cl)c1OCc1ccc(Cl)cc1F	> 64 µM (inactive)
CCOc1cc(CN2CCCC2)cc(Cl)c1OCc1ccc(Cl)cc1	> 64 µM (inactive)
COc1cc(CNC2CCCC2)cc(Cl)c1OCc1ccc(Cl)cc1	> 64 µM (inactive)
Clc1ccc(COc2c(Cl)cc(CNC3CCCC3)cc2Cl)cc1	> 64 µM (inactive)
CCOc1cc(CNC2CCCC2)cc(Cl)c1OCc1ccc(Br)cc1	> 64 µM (inactive)
CCOc1cc(CN(C(C)=O)C2CCCC2)cc(Cl)c1OCc1ccc(Cl)cc1	> 64 µM (inactive)
C#CCNCc1cc(Cl)c(OCc2ccc(Cl)cc2)c(OCC)c1	> 64 µM (inactive)
CCOc1cc(CN2CCCCC2)cc(Cl)c1OCc1ccc(F)cc1	> 64 µM (inactive)
CCOc1cc(CN2CCOCC2)cc(Cl)c1OCc1ccc(F)cc1	> 64 µM (inactive)
CCOc1cc(CNC2CC2)cc(Cl)c1OCc1ccc(Br)cc1	> 64 µM (inactive)
CCOc1cc(CNC2CC2)cc(Cl)c1OCc1ccc(C#N)cc1	> 64 µM (inactive)
CCOc1cc(CNC2CC2)cc(Cl)c1OCc1ccc(Cl)cc1F	> 64 µM (inactive)
CCOc1cc(CNC2CC2)cc(Cl)c1OCc1ccc(Cl)cc1	> 64 µM (inactive)
CCOc1cc(CN2CCOCC2)cc(Cl)c1OCc1ccc(Cl)cc1	> 64 µM (inactive)

Reference: PubChem BioAssay AID652273 (Sanford-Burnham Center for Chemical Genomics, 2013)
